Tests used:
[1] = Permeability/transport across hiPS-derived BCEC monolayer on membrane inserts (static); settings: human
Procedure: (§1) The stem cell line UKKi011-A was differentiated according to the protocol published by Stebbins et al. with slight modifications (Figure 2B). Cells were seeded at a density of 5 × 10^3 cells cm^−2 on Matrigel-coated (Corning, Amsterdam, The Netherlands) 6-well plates and cultivated for 3 days in mTeSR1 medium (Stem Cell Technologies, Vancouver, BC, Canada) before initiating the differentiation. On day 0, the mTeSR1 medium was switched to unconditioned medium (DMEM/F12 with 20% knock-out serum replacement, 1% non-essential amino acids, 0.5% GlutaMAX and […] 2-mercaptoethanol) and medium was exchanged daily for 5 days. On day 6, the medium was changed to endothelial medium with growth factors (heSFM with 1% platelet-poor plasma-derived human serum (PDS; SigmaAldrich, Taufkirchen, Germany), 20 ng mL^−1 bFGF (R&D Systems, Minneapolis, MN, USA) and 10 µM retinoic acid (SigmaAldrich, Taufkirchen, Germany)). On day 8, cells were dissociated with Accutase for 25 min at 37 °C and seeded at a density of 1 × 10^6 cells cm^−2 in endothelial medium with growth factors. Cells were seeded onto membrane inserts with 3.0 µm pore size (VWR International, Darmstadt, Germany) and coated with 400 µg mL^−1 human collagen IV (SigmaAldrich, Taufkirchen, Germany) and 100 µg mL^−1 fibronectin (SigmaAldrich, Taufkirchen, Germany) in 0.05% acetic acid. The medium was changed 24 h after seeding to either endothelial medium without growth factors (heSFM with 1% PDS) or enriched endothelial medium (heSFM with 5% PDS) on the apical side and heSFM on the basolateral side. Experiments were performed on day 10 or 11.
(§2) The substances of interest were added to the apical side of the membranes, incubated for 3 h at 37 °C, 5% CO2 and 90% relative humidity, and then the samples were collected from the apical and basolateral compartment for measurement. In the microfluidic setup, sodium fluorescein and caffeine (SigmaAldrich, Taufkirchen, Germany) were added to the apical channel and samples were collected 4, 24, 48 (only caffeine) and 72 h after application from both fluidic channels.
(§3) Sodium fluorescein was added to a final concentration of 1 µg mL^−1, the samples were transferred to black 96-well plates and fluorescence was measured at an excitation of 485 nm and emission of 535 nm with a Tecan infinite 200 plate reader (Tecan Group Ltd., Männedorf, Switzerland).
(§4) After incubation, the apical and basolateral medium were collected separately, transferred to plastic vials containing 5 mL Ultima Gold scintillation liquid (Perkin Elmer, Waltham, MA, USA) and radioactive decay was measured with a Tri-Carb 2910TR Scintillation counter (Perkin Elmer, Waltham, MA, USA).
(§5) Caffeine was added to a final concentration of 100 µM to the apical circuit. […] Detection was achieved using a Diode-Array-Detector (DAD) at a wavelength of 275 nm.

hiPS-BCECs [2] = test: as above; settings: for caffeine concentration, basolateral side / caffeine concentration, apical side: Figure 8B (static system), 100 µM caffeine apical; for permeability coefficient: hiPS-BCECs
Procedure: as §1, §2, §3, §4, §5

[3] = tested on: co-culture model of human hiPS-BCECs and rat glial cells; set-up: method as in PMID 31690750; settings: literature value ref 24; cited from earlier work
[4] = Permeability/transport across hiPS-BCEC barrier in microfluidic Quasi Vivo QV600 setup; settings: human, not told
Procedure: (§6) The microfluidic studies were performed using the commercial Quasi Vivo® QV600 system ([…] ., York, UK). […] On day 10, when the barrier has been established, the membrane containing the blood-brain barrier was inserted into the QV 600 chamber. The apical channel was filled with enriched endothelial medium (heSFM with 5% […] added to the basolateral channel. A fluidic flow with a flow rate of 200 μL min^-1 was established and experiments were performed for up to 4 days. […] For comparison, samples in the static setting were collected at the same time points with a separate insert for each time point. […] Standard dilutions of sample media were used for quantification and sample media from cell wells without sodium fluorescence application were used for background subtraction. All measurements were performed in duplex at least. […] Samples were collected from both the apical and basolateral circuits, filtered using Whatman Mini-UniPrepTM filters (VWR International, […] , Germany) and caffeine concentrations measured using HPLC. […] At a flow rate of 0.4 mL min^-1, 5 μL of sample was injected and separated at a column temperature of 60 °C.

hiPS-BCECs [5] = test: as above; settings: fluidic system; for caffeine concentration, basolateral side: 100 µM caffeine apical
Procedure: as §6

pBCECs = test: Permeability across primary porcine BCEC monolayer on Transwell inserts (static); type: in vitro ADME, Sus scrofa domestica; settings: 3 h incubation
Procedure: The substances of interest were added to the apical side of the membranes, incubated for 3 h at 37 °C, 5% CO2 and 90% relative humidity, and then the samples were collected from the apical and basolateral compartment for measurement.

[6] = static, established protocol / equal serum distribution (1% PDS both sides), apical application, 3 h incubation
[7] = static, serum only in apical medium (5% PDS apical, serum-free basolateral), 3 h incubation

Molecule | Papp at 100 µM [1] [×10⁻⁶ cm/s] | caffeine concentration, basolateral side (hiPS-BCECs [2]; 4 h) [µM] | caffeine concentration, apical side (hiPS-BCECs [2]; 24 h) [µM] | caffeine concentration, basolateral side (hiPS-BCECs [2]; 24 h) [µM] | caffeine concentration, apical side (hiPS-BCECs [2]; 48 h) [µM] | caffeine concentration, basolateral side (hiPS-BCECs [2]; 48 h) [µM] | permeability coefficient, literature value [3] | Papp at 100 µM [4] [×10⁻⁶ cm/s] | caffeine concentration, basolateral side (hiPS-BCECs [5]; 4 h) [µM] | caffeine concentration, basolateral side (hiPS-BCECs [5]; 24 h) [µM] | caffeine concentration, basolateral side (hiPS-BCECs [5]; 48 h) [µM] | caffeine concentration, basolateral side (hiPS-BCECs [5]; 72 h) [µM] | permeability coefficient (pBCECs; 5% FCS apical, serum-free basolateral) [×10⁻⁶ cm/s] | permeability coefficient (pBCECs; established protocol (serum-free medium on both sides), apical application) [×10⁻⁶ cm/s] | permeability coefficient (hiPS-BCECs [2]; static system compared with fluidic, 5% PDS apical, serum-free basolateral) | permeability coefficient (hiPS-BCECs [2]; [6]) [cm/s] | permeability coefficient (hiPS-BCECs [2]; [7]) [cm/s] | permeability coefficient (hiPS-BCECs [5]; hiPS-BCECs, flow 200 µL min^−1, 5% PDS apical, serum-free basolateral)
Cn1c(=O)c2c(ncn2C)n(C)c1=O [caffeine] | 9 | 24.46 ± 1.90 | 36.30 ± 2.71 | 36.19 ± 3.18 | 37.74 ± 3.02 | 37.97 ± 2.88 | 3.1 × 10^–5 cm s^−1 | 30.4 | 5.91 ± 3.36 | 14.85 ± 3.50 | 17.08 ± 4.44 | 17.72 ± 3.34 |  |  |  |  |  | 
O=C([O-])c1ccccc1-c1c2ccc(=O)cc-2oc2cc([O-])ccc12.[Na+].[Na+] [sodium fluorescein] |  |  |  |  |  |  |  |  |  |  |  |  | 0.62 | 1.85 | 0.81 × 10^–6 ± 0.82 × 10^–7 cm s^−1 | 1.41e-06 | 8e-07 | 2.75 × 10^–6 ± 1.61 × 10^–6 cm s^−1
inulin [[14C]-inulin] |  |  |  |  |  |  |  |  |  |  |  |  |  |  |  | 3.19e-06 | 8.9e-07 | 
